In one assay the target is T1, KRAS^G12C::SOS1 (Homo sapiens, UniProt Q07889).
T1 sequence (Q07889 1-1333): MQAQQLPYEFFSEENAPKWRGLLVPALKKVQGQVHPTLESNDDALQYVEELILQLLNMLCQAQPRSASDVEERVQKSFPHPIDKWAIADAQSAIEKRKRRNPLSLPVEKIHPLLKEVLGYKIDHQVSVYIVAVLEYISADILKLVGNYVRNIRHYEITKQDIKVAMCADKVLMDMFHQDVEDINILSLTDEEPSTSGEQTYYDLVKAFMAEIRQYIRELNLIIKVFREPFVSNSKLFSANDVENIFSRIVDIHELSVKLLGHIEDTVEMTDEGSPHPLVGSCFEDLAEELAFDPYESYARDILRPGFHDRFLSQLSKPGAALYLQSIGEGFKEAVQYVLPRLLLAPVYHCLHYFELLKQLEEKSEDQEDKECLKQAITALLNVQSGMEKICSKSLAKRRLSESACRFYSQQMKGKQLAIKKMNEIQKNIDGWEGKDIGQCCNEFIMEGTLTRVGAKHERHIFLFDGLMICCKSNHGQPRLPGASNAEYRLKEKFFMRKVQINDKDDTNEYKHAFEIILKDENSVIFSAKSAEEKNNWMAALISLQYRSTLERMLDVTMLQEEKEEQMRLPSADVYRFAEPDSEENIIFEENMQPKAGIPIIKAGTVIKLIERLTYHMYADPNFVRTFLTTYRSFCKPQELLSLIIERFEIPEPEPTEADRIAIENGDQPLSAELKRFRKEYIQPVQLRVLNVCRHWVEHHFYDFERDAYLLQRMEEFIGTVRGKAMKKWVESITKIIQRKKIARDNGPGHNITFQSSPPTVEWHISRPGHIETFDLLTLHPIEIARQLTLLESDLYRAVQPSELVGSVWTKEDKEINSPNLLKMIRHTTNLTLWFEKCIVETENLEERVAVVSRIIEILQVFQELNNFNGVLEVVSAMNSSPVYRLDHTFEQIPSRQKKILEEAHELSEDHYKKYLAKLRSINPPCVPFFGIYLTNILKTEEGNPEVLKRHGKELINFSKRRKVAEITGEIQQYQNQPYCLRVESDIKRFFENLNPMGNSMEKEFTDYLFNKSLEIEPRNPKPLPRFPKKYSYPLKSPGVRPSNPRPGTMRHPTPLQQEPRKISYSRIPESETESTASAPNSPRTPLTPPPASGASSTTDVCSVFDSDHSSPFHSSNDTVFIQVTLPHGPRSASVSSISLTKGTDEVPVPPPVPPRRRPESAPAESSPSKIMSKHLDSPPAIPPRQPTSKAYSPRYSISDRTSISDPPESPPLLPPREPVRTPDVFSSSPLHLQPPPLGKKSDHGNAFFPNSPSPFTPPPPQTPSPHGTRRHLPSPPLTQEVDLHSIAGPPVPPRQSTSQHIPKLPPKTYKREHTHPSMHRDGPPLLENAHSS
The assay can be described thus: KRAS G12C::SOS1 protein-protein interaction (PPI) inhibition assay (HTRF binding kit). For orientation: In TR-FRET formats the signal depends on donor and acceptor labels being close together.

In the next assay the target is T2, SOS1 (Homo sapiens, UniProt Q07889).
T2 construct: adding equal amounts of HIS-SOS1cat (160 nM; Cytoskeleton, US); His; purchased Cytoskeleton, US
T2 sequence (Q07889 564-1049 limits assumed): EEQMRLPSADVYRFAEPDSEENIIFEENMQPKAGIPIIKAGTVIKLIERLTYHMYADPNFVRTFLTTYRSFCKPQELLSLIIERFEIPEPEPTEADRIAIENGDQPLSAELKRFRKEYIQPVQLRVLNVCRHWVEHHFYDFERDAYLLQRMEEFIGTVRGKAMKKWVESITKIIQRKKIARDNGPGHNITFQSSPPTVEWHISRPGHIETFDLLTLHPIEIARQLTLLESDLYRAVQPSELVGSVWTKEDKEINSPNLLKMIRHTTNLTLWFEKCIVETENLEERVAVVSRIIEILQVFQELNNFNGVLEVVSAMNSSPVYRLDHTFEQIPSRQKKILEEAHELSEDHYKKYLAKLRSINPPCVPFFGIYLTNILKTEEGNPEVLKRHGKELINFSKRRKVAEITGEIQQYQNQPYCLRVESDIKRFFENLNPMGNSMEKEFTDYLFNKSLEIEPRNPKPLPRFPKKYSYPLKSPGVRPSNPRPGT
The assay can be described thus: SOS-catalyzed nucleotide exchange assay (HTRF, SOS1-mediated GTP loading of KRAS G12D). The format is biochemical. The following applies: GST-KRAS G12D, HIS-SOS1cat, EDA-GTP-DY-647P1; compound 128 pM to 10 µM; read-out: SOS-catalyzed nucleotide exchange assay (IC50 range, Grade). The gist of the method:
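SOS1cat (HIS-tagged) preincubated 10 min at room temperature with compound (128 pM-10 µM), then GST-KRAS G12D with anti-GST terbium added; GTP loading tracked as HTRF with a DY-647P1 GTP analogue after 30 min, buffer HEPES pH 7.4. GEF-free wells for normalization; IC50 derived.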

By IC50 is commonly meant the point on the concentration scale where inhibition reaches its midpoint. As to `C[C@@H](NC(=O)c1ccc(=O)n(-c2cccc(-c3ccnn3C(F)F)c2)n1)c1cc(N)cc(C(F)(F)F)c1` [Example 149, N-[(1R)-1-[3-amino-5-(trifluoromethyl)phenyl]ethyl]-1-[3-[2-(difluoromethyl)pyrazol-3-yl]phenyl]-6-oxo-pyridazine-3-carboxamide], the IC50 at KRAS^G12C::SOS1 and on SOS1 was under 1 µM each time.

As to `C[C@@H](NC(=O)c1ccc(=O)n(-c2cncc(-c3cnnn3C)c2)n1)c1cccc(C(F)(F)CF)c1F` [Example B09, (R)-N-(1-(2-fluoro-3-(1,1,2-trifluoroethyl)phenyl)ethyl)-1-(5-(1-methyl-1H-1,2,3-triazol-5-yl)pyridin-3-yl)-6-oxo-1,6-dihydropyridazine-3-carboxamide], the IC50 at KRAS^G12C::SOS1 and on SOS1 was under 1 µM in each case.

On to `C[C@@H](NC(=O)c1ccc(=O)n(-c2cccnc2F)n1)c1cccc(C(F)(F)CO)c1F` [Example 141, N-[(1R)-1-[3-(1,1-difluoro-2-hydroxy-ethyl)-2-fluorophenyl]ethyl]-1-(2-fluoro-3-pyridyl)-6-oxo-pyridazine-3-carboxamide], for which the IC50 at KRAS^G12C::SOS1 and at SOS1 was under 1 µM in each case.

`CCn1nncc1-c1cccc(-n2cc(C(=O)N[C@H](C)c3cccc(C(F)(F)F)c3F)ccc2=O)c1` [Example B04, N-[(R)-1-[2-fluoro-3-(trifluoromethyl)phenyl]ethyl]-1-[m-(1-ethyl-1H-1,2,3-triazol-5-yl)phenyl]-6-oxo-1,6-dihydronicotinamide]: the IC50 on KRAS^G12C::SOS1 and on SOS1 was under 1 µM in each case.

Take `C[C@@H](NC(=O)c1ccc(=O)n(-c2ccccc2CO)n1)c1cc(N)cc(C(F)(F)F)c1` [Example 156, N-[(1R)-1-[3-amino-5-(trifluoromethyl)phenyl]ethyl]-1-[2-(hydroxymethyl)phenyl]-6-oxo-pyridazine-3-carboxamide]: the IC50 at KRAS^G12C::SOS1 and on SOS1 was 1 to 10 µM throughout.

`COc1ccc(-n2nc(C(=O)N[C@H](C)c3cc(N)cc(C(F)(F)F)c3)ccc2=O)c(OC)c1` [Example 153, N-[(1R)-1-[3-amino-5-(trifluoromethyl)phenyl]ethyl]-1-(2,4-dimethoxyphenyl)-6-oxo-pyridazine-3-carboxamide]: the IC50 on KRAS^G12C::SOS1 and on SOS1 was under 1 µM in each case.

As to `C[C@@H](NC(=O)c1ccc(=O)n(-c2cccc(-c3ccnn3C(F)F)c2)n1)c1cccc(C(F)(F)CO)c1F` [Example 150, N-[(1R)-1-[3-(1,1-difluoro-2-hydroxy-ethyl)-2-fluoro-phenyl]ethyl]-1-[3-[2-(difluoromethyl)pyrazol-3-yl]phenyl]-6-oxo-pyridazine-3-carboxamide], the IC50 on KRAS^G12C::SOS1 and at SOS1 was under 1 µM throughout.

On to `Cc1cc(C(=O)N[C@H](C)c2cccc(C(F)(F)F)c2F)cn(-c2cncc(-c3cnnn3C)c2)c1=O` [Example B10, (R)-N-(1-(2-fluoro-3-(trifluoromethyl)phenyl)ethyl)-3-methyl-5'-(1-methyl-1H-1,2,3-triazol-5-yl)-2-oxo-2H-[1,3'-bipyridine]-5-carboxamide], for which the IC50 at KRAS^G12C::SOS1 and on SOS1 was under 1 µM throughout.

For the molecule `COc1ccc(-n2cc(C(=O)N[C@H](C)c3cccc(C(F)(F)CO)c3F)ccc2=O)c(F)c1OC` [Example 140, N-[(1R)-1-[3-(1,1-difluoro-2-hydroxy-ethyl)-2-fluoro-phenyl]ethyl]-1-(2-fluoro-3,4-dimethoxy-phenyl)-6-oxo-pyridine-3-carboxamide], the IC50 on KRAS^G12C::SOS1 and at SOS1 was under 1 µM throughout.

On to `C[C@@H](NC(=O)c1ccc(=O)n(-c2cccc3[nH]ccc23)n1)c1cc(N)cc(C(F)(F)F)c1` [Example 160, N-[(1R)-1-[3-amino-5-(trifluoromethyl)phenyl]ethyl]-1-(1H-indol-4-yl)-6-oxo-pyridazine-3-carboxamide], for which the figures for the IC50 at KRAS^G12C::SOS1 and at SOS1 were under 1 µM and 1 to 10 µM, respectively.

With `C[C@@H](NC(=O)c1ccc(=O)n(-c2cc(CO)ccc2F)n1)c1cc(N)cc(C(F)(F)F)c1` [Example 159, N-[(1R)-1-[3-amino-5-(trifluoromethyl)pheny 1]ethyl]-1-[2-fluoro-5-(hydroxymethyl)phenyl] -6-oxo-pyridazine-3-carboxamide], the IC50 at KRAS^G12C::SOS1 and on SOS1 was under 1 µM in each case.

Regarding `C[C@@H](NC(=O)c1ccc(=O)n(-c2cncc(-c3cnnn3C)c2)n1)c1cccc(C(F)F)c1F` [Example B02, N-[(1R)-1-[3-(difluoromethyl)-2-fluoro-phenyl]ethyl]-1-[5-(3-methyltriazol-4-yl)-3-pyridyl]-6-oxo-pyridazine-3-carboxamide], the IC50 on KRAS^G12C::SOS1 and at SOS1 was under 1 µM throughout.

As for `C[C@@H](NC(=O)c1ccc(=O)n(-c2cccc3cc[nH]c23)n1)c1cc(N)cc(C(F)(F)F)c1` [Example 155, N-[(1R)-1-[3-amino-5-(trifluoromethyl)phenyl]ethyl]-1-(1H-indole-7-yl)-6-oxo-pyridazine-3-carboxamide], the IC50 on KRAS^G12C::SOS1 was under 1 µM; on SOS1, 1 to 10 µM.

With `C[C@@H](NC(=O)c1ccc(=O)n(-c2ccccc2OC(F)F)n1)c1cccc(C(F)(F)CO)c1F` [Example 143, N-[(1R)-1-[3-(1,1-difluoro-2-hydroxy-ethyl)-2-fluoro-phenyl]ethyl]-1-[2-(difluoromethoxy)phenyl]-6-oxo-pyridazine-3-carboxamide], the half-inhibitory concentration (IC50) on KRAS^G12C::SOS1 and on SOS1 was under 1 µM each time.

As for `C[C@@H](NC(=O)c1ccc(=O)n(-c2cncc(-c3cnnn3C)c2)c1)c1cccc(C(F)(F)F)c1F` [Example B08, N-[(1R)-1-[2-fluoro-3-(trifluoromethyl)phenyl]ethyl]-1-[5-(3-methyltriazol-4-yl)-3-pyridyl]-6-oxo-pyridine-3-carboxamide], the IC50 on KRAS^G12C::SOS1 and at SOS1 was under 1 µM throughout.

As for `[2H]C([2H])([2H])n1nncc1-c1cncc(-n2nc(C(=O)N[C@H](C)c3cccc(C(F)(F)F)c3F)ccc2=O)c1` [Example B11, N-[(1R)-1-[2-fluoro-3-(trifluoromethyl)phenyl]ethyl]-6-oxo-1-[5-[3-(trideuteriomethyl)triazol-4-yl]-3-pyridyl]pyridazine-3-carboxamide], the IC50 on KRAS^G12C::SOS1 and at SOS1 was under 1 µM throughout.

Turning to `Cc1c([C@@H](C)NC(=O)c2ccc(=O)n(-c3cncc(-c4ccnn4C)c3)n2)cc(N)cc1C(F)(F)F` [Example B05, N-[(1R)-1-[5-amino-2-methyl-3-(trifluoromethyl)phenyl]ethyl]-1-[5-(2-methylpyrazol-3-yl)-3-pyridyl]-6-oxo-pyridazine-3-carboxamide], the IC50 at KRAS^G12C::SOS1 and at SOS1 was under 1 µM throughout.

For the molecule `CC(C)Oc1ccc(-n2nc(C(=O)N[C@H](C)c3cc(N)cc(C(F)(F)F)c3)ccc2=O)cc1` [Example 142, N-[(1R)-1-[3-amino-5-(trifluoromethyl)phenyl]ethyl]-1-(4-isopropoxyphenyl)-6-oxo-pyridazine-3-carboxamide], the IC50 on KRAS^G12C::SOS1 and at SOS1 was under 1 µM in each case.

Values taken from patent publication EP4667458A1 (Kanaph Therapeutics Inc., priority 2023, dated 2024).
